Assay results as given in PMC5318439, “The Novel Toll-Like Receptor 2 Agonist SUP3 Enhances Antigen Presentation and T Cell Activation by Dendritic Cells” (Frontiers in Immunology, 2017).
Where a SMILES comes first, the peptide text is derived from it. The star is where a group is joined. X1 = CCCCCCCCCCCCCCNC(=O)OC[C@H](C*)OC(=O)NCCCCCCCCCCCCCC; Palmitoyl = CCCCCCCCCCCCCCCC(=O)*

Columns and labels:
GMDCs = assay: Cytokine production by GMDCs; format: cell-based, mice; conditions: 200 nM, 24 h, ELISA; SUP3 versus Pam3
Experimental: Splenic DCs (5 × 10^5 cells/mL) were stimulated by Pam3 (200 nM), SUP3 (200 nM), or CpG ODN 1668 (20 nM; Adipogen IAX-200-001) in the GM-CSF (20 ng/mL) supplemented medium for indicated periods. Cell culture supernatants were harvested at indicated time points and stored at −40°C. RAW 264.7 cells and GMDCs were stimulated by lipopolysaccharide (LPS) (20 ng/mL; Adipogen IAX-100-013), Pam3, or SUP3 (both at 200 nM) for 24 h. For in vivo administration, Pam3 (2 nmol per mouse), SUP3 (2 nmol per mouse), or LPS (1 µg per mouse) were intravenously (i.v.) injected via tail veins. Serum was obtained through tail vein bleeding and centrifuged after coagulation and stored at −40°C. Cytokines (IL-6, eBioscience 88-7064; TNFα, eBioscience 88-7324; IL-12p40, BioLegend 431604), chemokine (MIP1α, R&D Systems DY450-05), and total IgM (eBioscience, 88-50470) were quantified by ELISA kits following the instructions of manufacturers.
Figure 1 Specificity and activity of novel TLR2 agonist SUP3. (A) Schematic chemical structure of SUP3. (B) Surface expression of TLR2 in wild-type (WT) and Tlr2^−/− RAW 264.7 cell lines. Gray shadows represented isotype control and black lines represented TLR2. […] The production of cytokines IL-6 and TNFα in culture supernatant was determined by ELISA. *p < 0.05, ****p < 0.0001, “n.s.” indicates statistically non-significant.

[1] = TD antigen (NP-KLH) immunization and antibody titer analysis; format: in vivo, mice; conditions: NP-KLH 5 µg per mouse i.p. with 2 nmol per mouse; serum ELISA weekly; vs Pam3
Experimental: Thymus-dependent antigen immunization and antibody titer analysis were performed as previously described ([43]). Briefly, wild-type (WT) mice were immunized by i.p. injection of TD antigen nitrophenyl-keyhole limpet hemocyanin (NP-KLH, 5 µg per mouse; Biosearch Technologies N-5060) alone, or mixed with SUP3 (2 nmol per mouse), Pam3 (2 nmol per mouse), or alum (3 µg per mouse; Thermo 77161). Serum was harvested every week, and nitrophenyl-specific IgM and IgG were determined by ELISA. IgM and total IgG were captured by nitrophenyl 30mer (Biosearch Technologies N-5050H), and high affinity IgG was captured by nitrophenyl 8mer (Biosearch Technologies N-5050L) pre-coated ELISA plates (Corning 9018).
Figure 5 SUP3 enhanced antigen presentation ability of CD11b^+ conventional dendritic cells (cDCs) and production of antibodies against thymus-dependent (TD) antigens. […] Three days after immunization, division of OT-II CD4^+ T cells from inguinal lymph nodes were analyzed by flow cytometry (B). Absolute numbers of proliferated OT-II CD4^+ T cells were calculated in (C). […] Cells were then thoroughly washed and cocultured with CFSE-stained OT-II CD4^+ T cells for 4 days and analyzed by flow cytometry. (D) The division of OT-II cells was measured by reduced level of CFSE-labeling. (E) Absolute numbers of proliferated T cells from (D) were calculated. […]

CCCCCCCCCCCCCCCC(=O)N[C@@H](CSC[C@@H](COC(=O)NCCCCCCCCCCCCCC)OC(=O)NCCCCCCCCCCCCCC)C(=O)NCC(=O)N[C@@H](CCCCN)C(=O)N[C@@H](CCCCN)C(=O)N[C@@H](CCCCN)C(=O)O [SUP3, (2S,5S,8S,14R,18R)-2,5,8-tris(4-aminobutyl)-4,7,10,13,21-pentaoxo-14-palmitamido-18-((tetradecylcarbamoyl)oxy)-20-oxa-16-thia-3,6,9,12,22-pentaazahexatriacontan-1-oic acid] (Palmitoyl-C(X1)GKKK-OH)
production of IL-6 and TNFα by GMDCs (GMDCs): comparable
titers of TD antigen-specific antibodies (IgM, total IgG, high affinity IgG) [1]: higher titers
